Article PMC4664064 (Chemical research in toxicology, 2015)

What was measured:
P450 1B1 = molecular target: T1, P450 1B1 (Homo sapiens, UniProt Q16678); experiment: EROD assay with recombinant enzyme, compound at […]; format: biochemical
T1 sequence (Q16678 1-543): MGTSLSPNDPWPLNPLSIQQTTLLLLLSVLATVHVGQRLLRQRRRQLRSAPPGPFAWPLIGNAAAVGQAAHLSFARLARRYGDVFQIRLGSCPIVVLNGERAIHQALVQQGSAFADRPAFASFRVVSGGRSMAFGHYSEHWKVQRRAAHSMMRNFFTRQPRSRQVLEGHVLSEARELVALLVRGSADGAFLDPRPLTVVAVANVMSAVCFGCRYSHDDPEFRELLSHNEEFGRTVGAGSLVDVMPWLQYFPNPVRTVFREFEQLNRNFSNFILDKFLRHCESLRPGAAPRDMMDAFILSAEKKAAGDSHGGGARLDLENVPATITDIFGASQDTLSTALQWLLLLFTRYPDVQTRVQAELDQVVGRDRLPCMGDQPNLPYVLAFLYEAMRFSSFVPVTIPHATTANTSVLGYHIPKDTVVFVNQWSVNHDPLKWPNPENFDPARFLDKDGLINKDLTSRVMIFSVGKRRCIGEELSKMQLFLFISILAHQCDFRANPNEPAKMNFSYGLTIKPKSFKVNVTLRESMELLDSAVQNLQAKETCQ
T1 sequence (P16435 2-677 partner): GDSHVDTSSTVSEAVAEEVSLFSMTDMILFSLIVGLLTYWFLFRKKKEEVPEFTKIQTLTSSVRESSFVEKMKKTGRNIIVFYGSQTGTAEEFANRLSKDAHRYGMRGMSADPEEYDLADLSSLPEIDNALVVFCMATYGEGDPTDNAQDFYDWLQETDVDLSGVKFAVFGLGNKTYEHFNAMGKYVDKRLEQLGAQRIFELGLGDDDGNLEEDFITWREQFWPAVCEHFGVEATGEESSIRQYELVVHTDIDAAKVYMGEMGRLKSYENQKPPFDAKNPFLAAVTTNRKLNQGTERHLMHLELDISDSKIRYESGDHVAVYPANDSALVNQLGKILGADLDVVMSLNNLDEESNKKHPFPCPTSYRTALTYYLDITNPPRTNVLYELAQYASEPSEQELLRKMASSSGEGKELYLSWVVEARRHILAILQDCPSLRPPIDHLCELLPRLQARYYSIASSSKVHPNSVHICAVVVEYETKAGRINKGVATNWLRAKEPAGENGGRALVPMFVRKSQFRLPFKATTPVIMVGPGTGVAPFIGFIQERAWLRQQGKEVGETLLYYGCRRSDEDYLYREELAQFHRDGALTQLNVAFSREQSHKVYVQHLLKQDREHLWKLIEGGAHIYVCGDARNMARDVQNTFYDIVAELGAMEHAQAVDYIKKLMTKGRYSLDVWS

P450 1A1 = molecular target: T2, P450 1A1 (Homo sapiens, UniProt P04798); experiment: EROD assay with recombinant enzyme, compound at […]; format: biochemical
T2 sequence (P04798 1-512): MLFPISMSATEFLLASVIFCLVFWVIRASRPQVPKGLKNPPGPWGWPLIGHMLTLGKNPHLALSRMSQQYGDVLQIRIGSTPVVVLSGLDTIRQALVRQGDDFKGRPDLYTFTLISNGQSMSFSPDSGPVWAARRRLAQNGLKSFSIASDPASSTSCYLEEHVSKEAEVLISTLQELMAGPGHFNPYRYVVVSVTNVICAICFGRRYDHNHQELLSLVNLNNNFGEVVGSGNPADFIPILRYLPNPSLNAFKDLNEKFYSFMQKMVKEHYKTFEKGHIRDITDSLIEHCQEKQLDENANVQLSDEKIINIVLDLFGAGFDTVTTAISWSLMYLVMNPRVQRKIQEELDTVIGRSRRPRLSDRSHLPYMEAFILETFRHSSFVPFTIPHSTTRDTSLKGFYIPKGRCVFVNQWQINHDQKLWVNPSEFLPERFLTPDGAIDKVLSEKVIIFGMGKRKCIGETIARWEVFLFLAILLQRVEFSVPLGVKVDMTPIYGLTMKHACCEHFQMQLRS
T2 sequence (P16435 2-677 partner): T1 sequence (P16435 2-677 partner)

SMILES	EROD assay with recombinant enzyme, compound at 1 and 10 uM (P450 1B1)	EROD assay with recombinant enzyme, compound at 1 and 10 uM (P450 1A1)
C=CC(C)(C)c1cc(/C=C/C(=O)c2ccc(O)cc2)c(OC)cc1O [LicA, licochalcone A]	LicA and LigC led to a significant inhibition of recombinant P450 1A1/1B1 enzyme activity (Figure 7B, C)	LicA and LigC led to a significant inhibition of recombinant P450 1A1/1B1 enzyme activity (Figure 7B, C)
O=C(/C=C/c1ccc(O)cc1)c1ccc(O)cc1O [LigC, isoliquiritigenin]	LicA and LigC led to a significant inhibition of recombinant P450 1A1/1B1 enzyme activity (Figure 7B, C)	LicA and LigC led to a significant inhibition of recombinant P450 1A1/1B1 enzyme activity (Figure 7B, C)
